Assays:
Assay in all cases: Inhibitory Activity of the Compounds of the Invention Against ROS1, NTRK and ALK and their Drug-Resistant Kinases
[1] = molecular target: High affinity nerve growth factor receptor (Homo sapiens, UniProt P04629)
Procedure: (§1) Inhibition of protein kinase activity by compounds was carried out on the Radio-tagged HotSpot kinase experimental platform of Reaction Biology Corporation. Fresh reaction solution (20 mM HEPESpH 7.5, 10 mM MgCl2, 1 mM EGTA, 0.02% Brij35, 0.02 mg/ml BSA, 0.1 mM Na3VO4, 2 mM DTT, 1% DMSO) containing corresponding substrates was prepared, cofactor and kinase to be tested were added into the above solution and mixed gently. Echo550 pipetting system was used to add the test compound DMSO solution to each well (the blank control group was added with the corresponding volume of DMSO), then 33P-ATP (with a final specific activity of 0.01 μCi/μL) was added to start the reaction. The reaction solution was incubated at room temperature for 120 minutes.

[2] = molecular target: NT-3 growth factor receptor (Homo sapiens, UniProt Q16288)
Procedure: as §1

[3] = molecular target: Proto-oncogene tyrosine-protein kinase ROS (Homo sapiens, UniProt P08922)
Chain of Proto-oncogene tyrosine-protein kinase ROS (P08922 whole entry): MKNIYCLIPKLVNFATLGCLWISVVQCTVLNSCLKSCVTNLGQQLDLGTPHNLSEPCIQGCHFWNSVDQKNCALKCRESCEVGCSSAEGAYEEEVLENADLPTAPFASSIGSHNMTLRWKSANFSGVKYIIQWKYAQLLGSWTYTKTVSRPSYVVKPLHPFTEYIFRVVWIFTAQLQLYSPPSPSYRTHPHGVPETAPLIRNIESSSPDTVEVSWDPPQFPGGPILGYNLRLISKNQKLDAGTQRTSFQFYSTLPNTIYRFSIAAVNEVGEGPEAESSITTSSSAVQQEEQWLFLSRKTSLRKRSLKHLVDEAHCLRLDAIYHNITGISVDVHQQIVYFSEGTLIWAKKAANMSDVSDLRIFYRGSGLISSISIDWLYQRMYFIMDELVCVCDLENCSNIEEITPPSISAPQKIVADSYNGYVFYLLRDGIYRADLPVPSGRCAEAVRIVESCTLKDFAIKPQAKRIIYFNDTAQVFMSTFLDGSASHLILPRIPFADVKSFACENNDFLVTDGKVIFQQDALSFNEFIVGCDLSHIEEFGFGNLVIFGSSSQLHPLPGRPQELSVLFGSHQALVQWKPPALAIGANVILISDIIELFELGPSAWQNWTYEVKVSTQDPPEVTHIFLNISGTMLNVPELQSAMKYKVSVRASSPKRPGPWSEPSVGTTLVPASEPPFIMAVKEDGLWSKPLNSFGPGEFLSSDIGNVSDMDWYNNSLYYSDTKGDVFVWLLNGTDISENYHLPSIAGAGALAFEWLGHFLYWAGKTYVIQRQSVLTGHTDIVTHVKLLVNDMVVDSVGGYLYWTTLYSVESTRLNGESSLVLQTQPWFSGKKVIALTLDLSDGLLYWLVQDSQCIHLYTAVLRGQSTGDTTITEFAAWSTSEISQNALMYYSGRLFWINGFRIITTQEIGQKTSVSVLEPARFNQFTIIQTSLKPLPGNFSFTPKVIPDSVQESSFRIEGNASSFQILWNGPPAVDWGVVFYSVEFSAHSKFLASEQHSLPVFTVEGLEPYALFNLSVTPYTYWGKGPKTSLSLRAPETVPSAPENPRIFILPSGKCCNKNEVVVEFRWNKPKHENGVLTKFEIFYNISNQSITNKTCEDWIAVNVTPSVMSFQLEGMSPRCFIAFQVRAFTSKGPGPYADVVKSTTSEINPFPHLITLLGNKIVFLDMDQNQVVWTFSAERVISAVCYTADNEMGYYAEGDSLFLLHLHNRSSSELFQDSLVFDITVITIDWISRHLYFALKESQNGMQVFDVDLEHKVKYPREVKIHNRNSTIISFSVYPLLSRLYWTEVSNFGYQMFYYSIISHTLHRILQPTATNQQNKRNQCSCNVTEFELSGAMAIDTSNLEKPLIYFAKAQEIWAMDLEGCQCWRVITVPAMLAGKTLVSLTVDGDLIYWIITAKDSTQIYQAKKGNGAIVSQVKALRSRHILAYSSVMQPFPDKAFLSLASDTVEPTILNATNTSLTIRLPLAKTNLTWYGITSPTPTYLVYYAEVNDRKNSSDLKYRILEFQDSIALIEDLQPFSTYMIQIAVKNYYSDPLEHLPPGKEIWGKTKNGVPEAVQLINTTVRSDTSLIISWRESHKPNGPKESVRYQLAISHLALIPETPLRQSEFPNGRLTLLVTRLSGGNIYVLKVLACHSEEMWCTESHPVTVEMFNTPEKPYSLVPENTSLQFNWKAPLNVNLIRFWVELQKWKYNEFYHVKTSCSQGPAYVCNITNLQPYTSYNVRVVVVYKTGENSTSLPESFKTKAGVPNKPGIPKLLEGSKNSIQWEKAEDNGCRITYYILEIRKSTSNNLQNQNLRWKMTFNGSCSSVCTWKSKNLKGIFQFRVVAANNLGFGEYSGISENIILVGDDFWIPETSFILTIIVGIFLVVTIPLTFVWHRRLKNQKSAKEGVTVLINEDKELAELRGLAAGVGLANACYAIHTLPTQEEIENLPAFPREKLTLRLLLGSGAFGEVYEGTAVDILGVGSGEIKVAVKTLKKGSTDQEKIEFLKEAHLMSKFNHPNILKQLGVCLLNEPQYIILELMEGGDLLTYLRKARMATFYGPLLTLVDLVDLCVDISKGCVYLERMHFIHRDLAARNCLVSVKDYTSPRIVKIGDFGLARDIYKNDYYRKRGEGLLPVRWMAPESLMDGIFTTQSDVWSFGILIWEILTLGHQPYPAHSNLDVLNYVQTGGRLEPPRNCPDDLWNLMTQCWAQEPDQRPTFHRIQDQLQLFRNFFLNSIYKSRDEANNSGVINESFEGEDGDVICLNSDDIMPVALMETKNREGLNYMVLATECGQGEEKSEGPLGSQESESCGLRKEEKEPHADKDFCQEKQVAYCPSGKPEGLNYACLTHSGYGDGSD
Procedure: as §1

Chain of High affinity nerve growth factor receptor (P04629 whole entry): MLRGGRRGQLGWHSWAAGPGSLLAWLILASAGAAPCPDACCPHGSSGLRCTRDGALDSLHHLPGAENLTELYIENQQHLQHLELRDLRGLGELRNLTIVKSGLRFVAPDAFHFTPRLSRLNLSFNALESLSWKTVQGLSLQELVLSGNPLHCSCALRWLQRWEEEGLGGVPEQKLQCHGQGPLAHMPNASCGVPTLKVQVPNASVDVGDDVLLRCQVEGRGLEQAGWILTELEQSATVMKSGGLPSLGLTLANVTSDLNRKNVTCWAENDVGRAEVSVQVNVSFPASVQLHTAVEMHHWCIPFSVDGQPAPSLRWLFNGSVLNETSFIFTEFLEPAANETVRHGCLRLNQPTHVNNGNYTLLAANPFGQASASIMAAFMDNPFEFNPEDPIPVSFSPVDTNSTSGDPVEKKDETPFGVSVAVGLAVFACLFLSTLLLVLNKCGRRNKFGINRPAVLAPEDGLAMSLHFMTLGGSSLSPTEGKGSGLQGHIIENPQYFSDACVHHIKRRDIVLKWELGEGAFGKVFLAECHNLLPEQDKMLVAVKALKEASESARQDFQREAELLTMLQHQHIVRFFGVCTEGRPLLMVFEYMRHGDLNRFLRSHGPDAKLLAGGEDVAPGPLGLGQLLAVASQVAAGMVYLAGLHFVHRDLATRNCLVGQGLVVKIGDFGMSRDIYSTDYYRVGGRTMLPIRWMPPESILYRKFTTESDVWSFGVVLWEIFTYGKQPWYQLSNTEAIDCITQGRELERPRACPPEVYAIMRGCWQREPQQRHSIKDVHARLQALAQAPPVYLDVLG
Chain of NT-3 growth factor receptor (Q16288 whole entry): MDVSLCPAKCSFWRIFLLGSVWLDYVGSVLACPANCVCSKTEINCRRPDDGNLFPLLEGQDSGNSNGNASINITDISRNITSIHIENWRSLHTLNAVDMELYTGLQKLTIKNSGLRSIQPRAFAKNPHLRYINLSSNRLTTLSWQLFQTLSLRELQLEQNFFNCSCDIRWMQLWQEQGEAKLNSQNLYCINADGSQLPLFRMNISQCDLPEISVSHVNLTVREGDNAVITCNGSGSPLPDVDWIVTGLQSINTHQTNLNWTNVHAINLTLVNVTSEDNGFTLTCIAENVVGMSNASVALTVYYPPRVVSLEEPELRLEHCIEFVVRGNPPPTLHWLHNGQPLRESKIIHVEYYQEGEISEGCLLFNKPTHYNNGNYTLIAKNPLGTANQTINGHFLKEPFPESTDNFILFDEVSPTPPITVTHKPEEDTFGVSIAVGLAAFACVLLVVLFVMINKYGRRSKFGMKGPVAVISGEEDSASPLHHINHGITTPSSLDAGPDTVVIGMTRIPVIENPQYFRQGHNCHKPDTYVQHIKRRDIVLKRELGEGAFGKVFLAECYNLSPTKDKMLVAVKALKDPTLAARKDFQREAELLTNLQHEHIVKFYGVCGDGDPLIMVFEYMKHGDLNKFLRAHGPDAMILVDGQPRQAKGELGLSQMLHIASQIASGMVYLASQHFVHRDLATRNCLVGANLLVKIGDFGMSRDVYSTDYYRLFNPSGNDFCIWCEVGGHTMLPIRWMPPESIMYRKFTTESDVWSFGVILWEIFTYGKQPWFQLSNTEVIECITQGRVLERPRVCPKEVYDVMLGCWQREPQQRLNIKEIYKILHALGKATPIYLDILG

IC50 [1]: < 0.5 nM | IC50 [2]: < 0.5 nM | IC50 [3]: < 0.5 nM
SMILES: C[C@@H](Oc1ccn2ncc(C3=NOC(C)(C)N3)c2n1)c1c(Cl)ccc(F)c1Cl [US12435089, Example 9]
